“And” between values parts separate entries of the source, which are not always exact repeats. Equal entries are not always repeated. Where two headings read alike, the source gives them in different places.
How the values were obtained:
[1] = system: B cell receptor (BCR) signaling; experiment: B cell activation assay (flow cytometry), human B cells; format: cell-based; details: treatment 4 h, IgM stimulation 18 h
Procedure: Compound was present throughout the stimulation. Cells were stained with Live/Dead dye (Fisher L34976) and then fluorophore-conjugated antibodies against CD20 (Biolegend 302330), CD3 (BD Pharmingen 557705), CD86 (Biolegend 305416) and CD69 (Biolegend 310906). Stained cells were fixed in PFA and run on an Attune N×T Acoustic Focusing Flow Cytometer (Thermo-Fisher A29004), and data was analyzed using FlowJo (v10.5.3) and GraphPad Prism (v7.00) software. Single live lymphocytes were gated for B cells (CD20+CD3−) and T cells (CD3+CD20−), and the geometric mean fluorescence intensity (MFI) of CD86 and CD69 was calculated for each population. The MFI of the unstimulated sample was used to quantify baseline activation.
This example evaluates whether CTM treatment affects B cell receptor (BCR) signaling. BTK is activated downstream of the B cell receptor and leads to upregulation of activation markers CD86 and CD69 on the surface of B cells.

[2] = target: BTK (Homo sapiens, UniProt Q06187); experiment: BTK degradation in human PBMCs (BTK flow cytometry), primary human B cells; format: cell-based; set-up: endogenous in cells; host or cells: human PBMC (B cells) from healthy donors
Procedure: Human peripheral blood mononuclear cells (PBMC) were obtained either: 1) by using Ficoll-Paque™ (GE Healthcare) for separation of peripheral blood hematopoietic cells from buffy coats of healthy human donors; or 2) directly from LeukoPak donations. PBMCs were grown at 37° C. and 5% CO2 in RPMI supplemented with 10% heat-inactivated FBS (Corning Premium Fetal Bovine Serum from Fisher, MT35015CV), 1× Penicillin/Streptomycin, and 2 mM Glutamine.
BTK Degradation in Human PBMCs (BTK Flow Cytometry)
This example evaluates the potency of CTMs in primary human B cells, rather than transformed or immortalized cancer cell lines. Primary cells are believed to be a physiologically relevant model. Thus, this example confirms the potency, kinetics, and level of BTK degradation in these cells in addition to the cell line models. Furthermore, this assay establishes that it is possible to monitor BTK degradation in primary human B cells, which can serve as a clinical biomarker.

[3] = system: Aiolos; experiment: Non-human primate (cyno) DRF PD, Aiolos remaining in T cells; format: in vivo; details: blood, 24 h after previous dose
Procedure: This example evaluates potency and tolerability of BTK CTMs following multiple, consecutive days of dosing and examines potency of compounds for BTK and Aiolos degradation. The data in the table below is from a study in which animals were dosed daily with the designated oral dose. Analysis for BTK and Aiolos levels was performed twenty-four hours following the previous dose.

[4] = system: Rec-1 cells; experiment: Cell viability assay (CellTiter-Glo), Rec-1 cells; format: cell-based
Text: This example evaluates effects of CTM-mediated degradation on cell viability. […] Mino and Rec-1 are models of Mantle Cell Lymphoma, which is sensitive to IMiDs.

[5] = system: BTK; experiment: PD data from cyno (BTK degradation); format: in vivo; details: blood
Text: In this example, compounds were profiled for activity in non-mouse species.

[6] = system: primary human T cells; experiment: T cell activation assay, CD25 and CD69 staining (flow cytometry); format: cell-based; details: for CD25 Staining Anti-CD3/Anti-CD28 Stimulation / CD69 Staining Anti-CD3/Anti-CD28 Stimulation: fold-change of response relative to baseline
Procedure, shortened: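 Primary human T cells stimulated via TCR with anti-CD3/anti-CD28 in the presence of test compound. IL-2 secretion measured by ELISA; surface CD25 and CD69 by flow cytometry. Values are fold-change versus anti-CD3/anti-CD28 stimulation without compound.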

[7] = PK data for BTK CTMs (in vivo plasma concentrations); details: for Vd: read-out: Volume of Distribution
Text: The present example evaluates in vivo plasma concentrations of BTK CTMs to develop PK-PD-efficacy relationship and predict human exposure.

[8] = Compound plasma exposure in cyno DRF study; format: in vivo; details: cynomolgus monkey, po
[9] = Compound plasma exposure in mouse (CD-1), daily oral dosing, same table as the cyno DRF study; format: in vivo; details: CD-1, mouse
[10] = 30 mg/kg, 30 mg/kg PO, 1 day of dosing
[11] = 100 mg/kg, 100 mg/kg PO, 1 day of dosing
[12] = 100 mg/kg, 100 mg/kg PO, 14 days of dosing
[13] = 30 mg/kg, 30 mg/kg PO, 14 days of dosing
[14] = 300 mg/kg, 300 mg/kg PO, 1 day of dosing
[15] = 300 mg/kg, 300 mg/kg PO, 14 days of dosing
[16] = Rat Sprague-Dawley, 10 mg/kg PO

Chain of BTK (Homo sapiens, UniProt Q06187) (Q06187 whole entry): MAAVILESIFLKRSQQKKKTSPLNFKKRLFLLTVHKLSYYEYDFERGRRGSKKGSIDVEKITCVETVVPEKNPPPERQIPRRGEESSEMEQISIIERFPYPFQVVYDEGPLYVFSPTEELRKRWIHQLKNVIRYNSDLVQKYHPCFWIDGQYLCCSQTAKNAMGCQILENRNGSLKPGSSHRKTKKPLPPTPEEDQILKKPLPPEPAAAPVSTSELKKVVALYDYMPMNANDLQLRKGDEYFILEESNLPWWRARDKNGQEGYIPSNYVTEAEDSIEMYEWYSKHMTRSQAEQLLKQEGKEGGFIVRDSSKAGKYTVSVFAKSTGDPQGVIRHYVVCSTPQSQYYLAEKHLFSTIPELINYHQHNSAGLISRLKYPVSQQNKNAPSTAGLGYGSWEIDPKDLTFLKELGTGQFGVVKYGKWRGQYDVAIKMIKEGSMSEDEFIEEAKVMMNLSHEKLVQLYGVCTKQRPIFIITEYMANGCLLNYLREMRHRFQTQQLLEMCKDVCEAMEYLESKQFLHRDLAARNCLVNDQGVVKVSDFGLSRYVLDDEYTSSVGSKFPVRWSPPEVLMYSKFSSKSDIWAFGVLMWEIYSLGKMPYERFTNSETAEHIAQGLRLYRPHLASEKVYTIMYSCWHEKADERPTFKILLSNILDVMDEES

With `CN1CCN([C@@H]2CCCN(c3cnc(C(N)=O)c(Nc4ccc(C5CCN(C[C@H]6CCN(c7ccc8c(c7)C(=O)N(C7CCC(=O)NC7=O)C8=O)C6)CC5)cc4)n3)C2)C1=O` (some centres unmarked) [Compound 44] as the molecule, how does the EC50 ([1]; read-out: CD69 EC50) read?
Its EC50 is 0.5 nM.

What about the EC50 ([1]; read-out: CD86 EC50) of the same molecule?
Its EC50 is 0.5 nM.

What about the DC50 ([2]; treatment time 1 h) of the same molecule?
The DC50 was 6 nM.

What about the DC50 ([2]; treatment time 2 h) of the same molecule?
The DC50 was 3 nM.

What about the DC50 ([2]; treatment time 4 h) of the same molecule?
Its DC50 is 0.51 nM.

And the “% Aiolos Remaining in T cells” value ([3]; 10 mg/kg PO daily, 1 day of dosing)?
The value was 96%.

And the “% Aiolos Remaining in T cells” value ([3]; 10 mg/kg PO daily, 14 days of dosing)?
Its value is 71%.

What about the “% Aiolos Remaining in T cells” value ([3]; 30 mg/kg PO daily, 1 day of dosing) of the same molecule?
The value was 99%.

What about the “% Aiolos Remaining in T cells” value ([3]; 30 mg/kg PO daily, 14 days of dosing) of the same molecule?
Its value is 69%.

What about the “% Aiolos Remaining in T cells” value ([3]; 100 mg/kg PO daily, 1 day of dosing) of the same molecule?
Its value is 96%.

What about the “% Aiolos Remaining in T cells” value ([3]; 100 mg/kg PO daily, 14 days of dosing) of the same molecule?
Its value is 63%.

And the EC50 ([4]; Homo sapiens, Rec1, treatment time 72 h)?
The EC50 was 0.82 nM.

What about the “EMAX (% viable cells)” value ([4]; treatment time 72 h) of the same molecule?
The value was 37%.

And the “% BTK Remaining” value ([5]; 1 mg/kg IV, 2 h)?
The value was 6%.

What about the “% BTK Remaining” value ([5]; 1 mg/kg IV, 4 h) of the same molecule?
Its value is 6%.

And the “% BTK Remaining” value ([5]; 1 mg/kg IV, 8 h)?
The value was 7%.

And the “% BTK Remaining” value ([5]; 1 mg/kg IV, 24 h)?
Its value is 9%.

And the “% BTK Remaining” value ([5]; 1 mg/kg PO, 2 h)?
The value was 85%.

What about the “% BTK Remaining” value ([5]; 1 mg/kg PO, 4 h) of the same molecule?
The value was 65%.

What about the “% BTK Remaining” value ([5]; 1 mg/kg PO, 8 h) of the same molecule?
The value was 52%.

What about the “% BTK Remaining” value ([5]; 1 mg/kg PO, 24 h) of the same molecule?
Its value is 40%.

And the “% BTK Remaining” value ([5]; 10 mg/kg PO, 2 h, 10 mg/kg)?
The value was 59% and 82%.

What about the “% BTK Remaining” value ([5]; 10 mg/kg PO, 4 h, 10 mg/kg) of the same molecule?
Its value is 35% and 42%.

And the “% BTK Remaining” value ([5]; 10 mg/kg PO, 8 h, 10 mg/kg)?
The value was 22% and 27%.

And the “% BTK Remaining” value ([5]; 10 mg/kg PO, 24 h, 10 mg/kg)?
The value was 15% and 29%.

And the “% BTK Remaining” value ([5]; 30 mg/kg PO, 2 h)?
Its value is 83%.

What about the “% BTK Remaining” value ([5]; 30 mg/kg PO, 4 h) of the same molecule?
Its value is 47%.

What about the “% BTK Remaining” value ([5]; 30 mg/kg PO, 8 h) of the same molecule?
Its value is 22%.

What about the “% BTK Remaining” value ([5]; 30 mg/kg PO, 24 h) of the same molecule?
Its value is 17%.

And the “% BTK Remaining” value ([5]; 100 mg/kg PO, 2 h)?
Its value is 48%.

What about the “% BTK Remaining” value ([5]; 100 mg/kg PO, 4 h) of the same molecule?
Its value is 27%.

What about the “% BTK Remaining” value ([5]; 100 mg/kg PO, 8 h) of the same molecule?
Its value is 12%.

And the “% BTK Remaining” value ([5]; 100 mg/kg PO, 24 h)?
The value was 8%.

What about the “CD25 Staining Anti-CD3/Anti-CD28 Stimulation” value ([6]; 1.4 nM) of the same molecule?
The value was 1.25.

And the “CD69 Staining Anti-CD3/Anti-CD28 Stimulation” value ([6]; 1.4 nM)?
Its value is 1.21.

What about the “CD25 Staining Anti-CD3/Anti-CD28 Stimulation” value ([6]; 37 nM) of the same molecule?
Its value is 0.86.

What about the “CD69 Staining Anti-CD3/Anti-CD28 Stimulation” value ([6]; 37 nM) of the same molecule?
Its value is 0.85.

What about the “CD25 Staining Anti-CD3/Anti-CD28 Stimulation” value ([6]; 333 nM) of the same molecule?
The value was 0.52.

What about the “CD69 Staining Anti-CD3/Anti-CD28 Stimulation” value ([6]; 333 nM) of the same molecule?
Its value is 0.60.

And the “expression of CD25 and CD69 compared to baseline (anti-CD3/anti-CD28 stimulation alone)” value ([6]; primary human T cells)?
The value was “unchanged or decreased levels”.

And the AUC ([7]; Mouse Balb/c, 1 mg/kg IV)?
Its AUC is 4.07 µM·h.

And the clearance ([7]; Mouse Balb/c, 1 mg/kg IV)?
Its clearance is 5.1 mL/min/kg.

What about the Vd ([7]; Mouse Balb/c, 1 mg/kg IV) of the same molecule?
The Vd was 0.69 L/kg.

What about the AUC ([7]; Mouse Balb/c, 10 mg/kg PO) of the same molecule?
The AUC was 4 µM·h.

And the bioavailability ([7]; Mouse Balb/c, 10 mg/kg PO)?
Its bioavailability is 10%.

What about the AUC ([8]; 10 mg/kg, 10 mg/kg PO, 1 day of dosing) of the same molecule?
The AUC was 0.148 µM·h.

And the AUC [8, 10]?
The AUC was 0.268 µM·h.

What about the Cmax [8, 11] of the same molecule?
Its Cmax is 22.6 nM.

What about the AUC [8, 12] of the same molecule?
Its AUC is 1.52 µM·h.

What about the AUC [9, 10] of the same molecule?
Its AUC is 2.32 µM·h.

What about the Cmax [9, 10] of the same molecule?
The Cmax was 230 nM.

And the AUC [9, 13]?
Its AUC is 2.22 µM·h.

What about the Cmax [9, 13] of the same molecule?
Its Cmax is 250 nM.

And the AUC [9, 11]?
The AUC was 4.15 µM·h.

What about the Cmax [9, 11] of the same molecule?
The Cmax was 400 nM.

And the AUC [9, 12]?
Its AUC is 8.07 µM·h.

And the Cmax [9, 12]?
Its Cmax is 590 nM.

What about the AUC [9, 14] of the same molecule?
The AUC was 9.53 µM·h.

And the Cmax [9, 14]?
Its Cmax is 740 nM.

And the AUC [9, 15]?
Its AUC is 12.8 µM·h.

And the Cmax [9, 15]?
Its Cmax is 940 nM.

For `CN1CCN([C@@H]2CCCN(c3cnc(C(N)=O)c(Nc4ccc(C5CCN(CC6CCN(c7ccc8c(=O)n(C9CCC(=O)NC9=O)ccc8c7)CC6)CC5)cc4)n3)C2)C1=O` (some centres unmarked) [Compound 72], which AUC ([7]; Mouse Balb/c, 1 mg/kg IV) is on record?
Its AUC is 3.96 µM·h.

And the clearance ([7]; Mouse Balb/c, 1 mg/kg IV)?
The clearance was 5.1 mL/min/kg.

And the Vd ([7]; Mouse Balb/c, 1 mg/kg IV)?
Its Vd is 0.68 L/kg.

And the AUC ([7]; Mouse Balb/c, 10 mg/kg PO)?
The AUC was 2.9 µM·h.

And the bioavailability ([7]; Mouse Balb/c, 10 mg/kg PO)?
The bioavailability was 7%.

What does the source list for `CN1CCN([C@@H]2CCCN(c3cnc(C(N)=O)c(Nc4ccc(C5CCN(CC6CCN(c7ccc(-c8nn(C9CCC(=O)NC9=O)c(=O)n8C)cc7)CC6)CC5)cc4)n3)C2)C1=O` (some centres unmarked) [Compound 121]?
AUC ([7]; Mouse Balb/c, 1 mg/kg IV): 2.87 µM·h; clearance ([7]; Mouse Balb/c, 1 mg/kg IV): 6.6 mL/min/kg; Vd ([7]; Mouse Balb/c, 1 mg/kg IV): 0.77 L/kg; AUC ([7]; Mouse Balb/c, 30 mg/kg PO): 2.22 µM·h; bioavailability ([7]; Mouse Balb/c, 30 mg/kg PO): 11%; AUC ([7]; Rat Sprague-Dawley, 1 mg/kg IV): 0.919 µM·h; clearance ([7]; Rat Sprague-Dawley, 1 mg/kg IV): 20 mL/min/kg; Vd ([7]; Rat Sprague-Dawley, 1 mg/kg IV): 3.12 L/kg; AUC [7, 16]: 0.083 µM·h; bioavailability [7, 16]: 1%; AUC ([7]; Rat Sprague-Dawley, 30 mg/kg PO): 0.73 µM·h
